Data reported in patent US8663616B2, “Enzymatic peracid generation for use in oral care products” (E I du Pont de Nemours and Company, priority 2010, dated 2014).

How the values were obtained:
[1] = One-step bleaching of stained bovine enamel with perhydrolase system (Example 12)
From the text: (§1) Whiteness index (WI) is defined by the International Commission on Illumination (CIE) and described in ASTM method E313-05 and calculated for D65/10 incident light as: WI=Y+800*(0.3138−x)+1700*(0.3310−y) Where Y, x, and y are the luminance factor and the chromaticity coordinates respectively of the enamel substrate.
(§2) The purpose of this example is to show the tooth bleaching effect of enzymatic generated peracetic acid in a one-step application and compare to the performance achieved with chemically derived peracetic acid. Two methods were developed to use a perhydrolytic enzyme (CE-7 perhydrolase) system to achieve the target level of tooth bleaching. The first method (referred to herein as the “one-step approach”) comprises combining different amounts of at least one CE-7 perhydrolase with triacetin (an example of a suitable ester substrate) and hydrogen peroxide to generate peracetic acid using model stained enamel substrates. Bovine enamel incisors were prepared as indicated in Example 1. Stained bovine enamel blocks were hydrated in water at least 1 hr prior to use to stabilize the color of the substrate. The color for each enamel block was measured after hydration prior to the start of the experiment. Three enamel samples were treated for each solution type. The solutions used were a buffer only control, 2.5% H2O2, 1% peracetic acid, a perhydrolase composition including 10 μM EZ-1 (C277S; SEQ ID NO: 424), 100 mM triacetin and 250 mM H2O2 and a no enzyme control of 100 mM triacetin and 250 mM H2O2. All solutions were prepared in 500 mM sodium phosphate buffer, pH 7.2. The high buffer strength was necessary to maintain the 1% peracetic acid solution at neutral pH. All solutions were freshly prepared for each treatment point. The enzyme-triacetin-H2O2 combination and triacetin-H2O2 combination was mixed immediately before enamel exposure. After each treatment step, each enamel block was rinsed with water and a color measurement was obtained. A total treatment time of 61 min was used with durations of exposure of 1 min, 5 min, 10 min, 15 min and 30 min. The concentration of peracetic acid in solution after the 1 min, 10 min and 30 min treatments was evaluated by colorimetric detection of ABTS oxidation.

[2] = Peracetic acid vs hydrogen peroxide bleaching of coffee/tea stained bovine enamel (whiteness index); details: for ΔWI: 0 to 61 min; for Whiteness Index 0 min: before exposure
From the text: This example describes the use of peracetic acid to achieve a bleaching effect on model stained enamel surfaces. Bovine enamel incisors were obtained from SE Dental (Baton Rouge, La.). Teeth were sectioned and cut into enamel slabs approximately 7 mm on each side using a DREMEL® rotary saw (Robert Bosch Power Tool Corporation; Chicago, Ill.) with a diamond blade. The enamel slabs were cleaned and lightly polished to remove surface debris. The enamel was pretreated with a mixture of coffee and tea for 1-5 days in order to stain to a color similar to human stained teeth.
Each enamel block was hydrated in water for at least 1 hr prior to use. Color measurements for the substrate were obtained prior to exposure to test solutions. Solutions of peracetic acid were prepared from a 32% stock in 500 mM sodium phosphate buffer, pH 7.2. A solution of 2.5% H2O2 was also prepared in the same buffer. Multiple enamel blocks were exposed to each solution for 1 min followed by additional exposures of 5 min, 10 min, 15 min and 30 min. For each treatment, a fresh solution of peracetic acid and hydrogen peroxide was prepared from the stock solutions. After each treatment the enamel blocks were rinsed with water and measured with a Konica-Minolta 2600d spectrophotometer.
as §1

[3] = Bleaching of coffee-tea stained bovine enamel with EZ-1 and various ester substrates (Example 15)
Method: The optimal conditions used for the generation of peracetic acid with each substrate were derived from the studies in Example 14 and are listed below as follows:
Bovine enamel incisors were prepared as indicated in Example 1. The stained enamel blocks were placed in a 24 well plate with the dentin side facing down and hydrated overnight in phosphate buffer, pH 7.2. Prior to treatment, a color measurement of each tooth was performed using a Konica-Minolta 2600d spectrophotometer and whiteness index was calculated as specified in Example 1.
Each enzyme solution was prepared in a 1.5-mL microfuge tube (Eppendorf, #2243102-1) and 1 mL of the solution was immediately transferred to the 24 well plate containing the pre-hydrated teeth. The control samples consisted of 100 mM phosphate buffer, pH 7.2 and 9% H2O2 in 100 mM citrate/phosphate buffer, pH 5.3. The teeth were incubated at room temperature for 30 minutes, removed, rinsed with 100 mM phosphate, pH 7.2 and a color measurement was taken. The teeth were placed back into the 24 well plate at which time fresh enzyme solutions were prepared and added to each well. This process was repeated for a total of 3 whitening treatments; 30 min per treatment (Table 22).

[4] = Peracetic acid in treatment solution by ABTS absorbance (Example 12); assay type: biochemical; details: 1:100 dilution into ABTS reagent
From the text: as §2
Determination of the peracetic acid (PAA) concentration in the reaction mixtures by a colorimetric method was performed according to the method described by Dinu et. al. (supra). A reagent solution of 1 mM 2,2′-azino-bis(3-ethylbenzothiazoline)-6-sulfonate (ABTS), 50 μM potassium iodide in 125 mM potassium citrate buffer at pH 5.0 was prepared. […] The solution was analyzed for absorbance at 405 nm using a Microplate reader. A comparison of relative amounts of peracetic acid in solution was determined by comparing absorbance values directly.

[5] = Peracetic acid from C277S CXH fusions exposed to hydroxyapatite discs (Example 9); details: no enzyme control subtracted; for Peracetic acid (ppm) Exposed to Hydroxyapatite, Disc: disc-bound enzyme, 100 mM triacetin, 100 mM H2O2, 30 min, 37° C.; for Peracetic acid (ppm) Exposed to Hydroxyapatite, Supernatant: unbound enzyme in supernatant after 10 μM enzyme on disc
[6] = Peracetic acid generated in solution by C277S CXH fusions (Example 9); details: 0.5 μM enzyme, sarkosyl buffer, 100 mM triacetin, 100 mM H2O2, pH 7.2, 10 min, 37° C.

OO [Enzyme H2O2, hydrogen peroxide]
Whiteness Index 0 min ([1]; before treatment, 2.5% H2O2, 100 mM triacetin/250 mM H2O2, 1% PAA, 10 μM EZ-1/100 mM triacetin/250 mM H2O2, pH 7.2): −149.3
ΔWI ([1]; one-step, 0 to 61 min): 46.2
Whiteness Index 1 min ([1]; one-step, cumulative treatment 1 min): −146.3
Whiteness Index 6 min ([1]; one-step, cumulative treatment 6 min): −142.5
Whiteness Index 16 min ([1]; one-step, cumulative treatment 16 min): −134.7
Whiteness Index 31 min ([1]; one-step, cumulative treatment 31 min): −125.2
Whiteness Index 61 min ([1]; one-step, cumulative treatment 61 min): −103.1
ΔWI ([2]; Table 1, 2.5% H2O2 or 0.5% PAA): 42.6
Whiteness Index 1 min ([2]; Table 1, 2.5% H2O2 or 0.5% PAA, cumulative exposure 1 min): −127.2
Whiteness Index 6 min ([2]; Table 1, 2.5% H2O2 or 0.5% PAA, cumulative exposure 6 min): −124.5
Whiteness Index 16 min ([2]; Table 1, 2.5% H2O2 or 0.5% PAA, cumulative exposure 16 min): −118.4
Whiteness Index 31 min ([2]; Table 1, 2.5% H2O2 or 0.5% PAA, cumulative exposure 31 min): −103.6
Whiteness Index 61 min ([2]; Table 1, 2.5% H2O2 or 0.5% PAA, cumulative exposure 61 min): −84.9
Whiteness Index 0 min ([2]; Table 1, 2.5% H2O2 or 0.5% PAA, 500 mM sodium phosphate pH 7.2): −127.5
Whiteness Index 1 min ([2]; Table 2, 2.5% H2O2): −92.6
Whiteness Index 6 min ([2]; Table 2, 2.5% H2O2): −86.4
Whiteness Index 16 min ([2]; Table 2, 2.5% H2O2): −79.5
Whiteness Index 31 min ([2]; Table 2, 2.5% H2O2): −68.3
Whiteness Index 61 min ([2]; Table 2, 2.5% H2O2): −56.4
ΔWI ([2]; Table 2, 2.5% H2O2): 37.4
Whiteness Index 0 min ([2]; Table 2, 2.5% H2O2): −93.8
Whiteness Index Treatment 1 ([3]; after 1 x 30 min treatment): −129.6
Whiteness Index Treatment 2 ([3]; after 2 x 30 min treatments): −117.6
Whiteness Index Treatment 3 ([3]; after 3 x 30 min treatments): −115.2
Whiteness Index Treatment 0 ([3]; before treatment, 40 ppm EZ-1, 100 mM substrate, H2O2 100 mM (TA), 360 mM (PGDA, SOC), 60 mM (GPA), pH 7.2, control 9% H2O2 pH 5.3 without enzyme): −167.6
ΔWI ([3]; treatment 0 to treatment 3): 52.4
Absorbance 405 nm, 1 min ([4]; peracetic acid at end of 1 min treatment): 0.056
Absorbance 405 nm, 10 min ([4]; peracetic acid at end of 10 min treatment): 0.060
Absorbance 405 nm, 30 min ([4]; peracetic acid at end of 30 min treatment): 0.054

B1: EZ-25: C277S-EPEPE-Link1-EPEPE-CXHG102-H6, SEQ ID NO: 449 (protein)
chain: MAFFDLPLEELKKYRPERYEEKDFDEFWEETLAESEKFPLDPVFERMESHLKTVEAYDVTFSGYRGQRIKGWLLVPKLEEEKLPCVVQYIGYNGGRGFPHDWLFWPSMGYICFVMDTRGQGSGWLKGDTPDYPEGPVDPQYPGFMTRGILDPRTYYYRRVFTDAVRAVEAAASFPQVDQERIVIAGGSQGGGIALAVSALSKKAKALLCDVPFLCHFRRAVQLVDTHPYAEITNFLKTHRDKEEIVFRTLSYFDGVNFAARAKIPALFSVGLMDNISPPSTVFAAYNYYAGPKEIRIYPYNNHEGGGSFQAVEQVKFLKKLFEKGEPEPEPEGPGSGGAGSPGSAGGPGSEPEPEPELRFLARRFLKLRRARKWWNAWKVWVTRHHHHHH
Peracetic acid (ppm) Exposed to Hydroxyapatite, Disc [5]: 1791 ppm
Peracetic acid (ppm) Exposed to Hydroxyapatite, Supernatant [5]: 1029 ppm
Peracetic acid (ppm) In Solution [6]: 1703 ppm

B2: EZ-24: C277S-…-Link1-CXH104-H6, SEQ ID NO: 448 (protein)
chain: MAFFDLPLEELKKYRPERYEEKDFDEFWEETLAESEKFPLDPVFERMESHLKTVEAYDVTFSGYRGQRIKGWLLVPKLEEEKLPCVVQYIGYNGGRGFPHDWLFWPSMGYICFVMDTRGQGSGWLKGDTPDYPEGPVDPQYPGFMTRGILDPRTYYYRRVFTDAVRAVEAAASFPQVDQERIVIAGGSQGGGIALAVSALSKKAKALLCDVPFLCHFRRAVQLVDTHPYAEITNFLKTHRDKEEIVFRTLSYFDGVNFAARAKIPALFSVGLMDNISPPSTVFAAYNYYAGPKEIRIYPYNNHEGGGSFQAVEQVKFLKKLFEKGEPEPEPEGPGSGGAGSPGSAGGPGSRMLSRILRMFVRILKRERLSQVRGLFVHHHHHH
Peracetic acid (ppm) Exposed to Hydroxyapatite, Disc [5]: 3453 ppm
Peracetic acid (ppm) Exposed to Hydroxyapatite, Supernatant [5]: 719 ppm
Peracetic acid (ppm) In Solution [6]: 2951 ppm

B3: EZ-26: C277S-EPEPEPEPEPE-Link1-CXHG102-H6, SEQ ID NO: 450 (protein)
chain: MAFFDLPLEELKKYRPERYEEKDFDEFWEETLAESEKFPLDPVFERMESHLKTVEAYDVTFSGYRGQRIKGWLLVPKLEEEKLPCVVQYIGYNGGRGFPHDWLFWPSMGYICFVMDTRGQGSGWLKGDTPDYPEGPVDPQYPGFMTRGILDPRTYYYRRVFTDAVRAVEAAASFPQVDQERIVIAGGSQGGGIALAVSALSKKAKALLCDVPFLCHFRRAVQLVDTHPYAEITNFLKTHRDKEEIVFRTLSYFDGVNFAARAKIPALFSVGLMDNISPPSTVFAAYNYYAGPKEIRIYPYNNHEGGGSFQAVEQVKFLKKLFEKGEPEPEPEPEPEPEPEGPGSGGAGSPGSAGGPGSLRFLARRFLKLRRARKWWNAWKVWVTRHHHHHH
Peracetic acid (ppm) Exposed to Hydroxyapatite, Disc [5]: 1849 ppm
Peracetic acid (ppm) Exposed to Hydroxyapatite, Supernatant [5]: 1636 ppm
Peracetic acid (ppm) In Solution [6]: 2273 ppm
